Measured values reported in patent publication US20180312539A1, “METHODS FOR PREPARING HIGH THROUGHPUT PEPTIDOMIMETICS, ORALLY BIOAVAILABLE DRUGS AND COMPOSITIONS CONTAINING SAME” (University of Southern California, priority 2011, published 2018).

Columns and labels:
proteinase K = proteinase K (Parengyodontium album, UniProt P06873)
Experimental: Immobilized chymotrypsin and proteinase K purchased from Sigma. 250 nmoles of peptide in DMSO were added to 50 mM sodium phosphate buffer (pH=8.0) with a final DMSO concentration of 2%. […] The graph was generated by fitting the data to a one phase exponential decay equation (GraphPad Prism 5.0).
Protease resistance enhancement was then tested. The simplest solution for enhancing protease resistance would be the removal of amino acids recognized by protease K and chymotrypsin.
Next the role of each of the N-methyl alanines was analyzed independently. […] For example sequence modifications, including N-methylation would be accomplished one amino acid at a time, walking the peptide from low protease stability to high stability. Whether this is a viable approach for making a peptide like SUPR was investigated. Towards that end, Applicants walked back from SUPR peptide to something closer to cycGIBP, and to determine if there was a gradual decrease in protease resistance. Towards that end, three peptides were synthesized. Two of them contained only one NMA (alanine was substituted for NMA), and the other had no NMA. It was hypothesized that if one could walk back to cycGIBP, then one would expect the loss of a single N-methyl to have some effect on reducing protease resistance, but to still be better than cycGIBP.

Gαi1 = target: T1, Gαi1 (Homo sapiens, UniProt P63096); test: TNT pulldown specificity analysis with radiolabeled Gα subunits; assay type: binding; details: C-terminally biotinylated peptide on NeutrAvidin-agarose
T1 construct: made in house; host or cells: TNT (coupled in vitro transcription/translation), radiolabeled
Experimental: TNT pulldown experiments were carried out as previously described in Stoop and Craik (2003) Nat. Biotech 21:1063. […] Control NeutrAvidin-agarose was treated with DMSO alone. Binding reactions proceeded for 1 h at 4° C. followed by filtration and washing with 1× selection buffer. The matrix was analyzed by scintillation counting, and the percent bound was determined by the matrix counts divided by the total counts as determined by TCA precipitation. […] The peptide was immobilized on NeutrAvidin-agarose and used to pull down radiolabeled protein. […] This was true both for specificity within the Gα family as well as state specificity of Gαi1. In fact, there was a small enhancement of specificity for the target Gαi1 over a protein with nearly 85% sequence similarity, Gαi2. […] The ability to retain or enhance selectivity for a desired target is of tremendous importance for therapeutic and diagnostic development.

Human microsome digests = assay type: in vitro ADME
Experimental: Pooled, mixed gender human microsomes containing cytochrome P450's were obtained from Xenotech. 100 μL of microsomes were added to 500 of PBS buffer containing 250 nmoles of peptide with 1% DMSO. 50 μL aliquots were removed at various time points and worked up in the same manner as the human serum digests.
Another vital area for the in vivo processing of drugs is the liver. All blood is eventually filtered through the liver, where various types of enzymes functionalize drugs for the purpose of excretion. […] These enzymes are largely involved in the oxidation of drugs, and can be found on the […]. Human liver microsomes are functional liver extract containing cytochrome P450s. Therefore half-life of modification of peptides by cytochrome P450s from exposure to human microsomes was examined. The results were similar to the human serum result in that both cyclization and N-methylation were necessary for significant enhancement of resistance to modification. […] This is interesting because the trait of protease resistance, not resistance to cytochrome P450 modification was a selection criteria.
A similar experiment was performed analyzing protease resistance to cytochrome P450 degradation. Peptide was incubated with human liver microsomes at 37° C. All peptides were highly protease resistant. […]

[1] = set-up: species or system C57BL6 mice; details: mouse, in vivo, po, 10 mg/kg
Experimental: The following peptides were synthesized for oral administration: […](FAM) (SEQ ID NO: 14), […](FAM)DK(Palmitoleic acid) (SEQ ID NO: 15), and […](FAM) (SEQ ID NO: 16), wherein FAM is a lysine derivative containing fluorescein. All peptides were cyclized from the side chain to lysine to the N-terminus as previously described. Anesthetized C57BL6 mice had peptide administered at a dose of 10 mg/kg by oral gavage. After administration, mice were removed from isoflurane. At various time points, blood samples were taken by orbital bleeding as previously described. Peaks were normalized to a 15 minute time point from mice that had peptide administered by IV injection.
The following peptides were synthesized for oral administration: […](FAM) (SEQ ID NO: 14), […](FAM) (SEQ ID NO: 16), […](FAM)DK(biotin) (SEQ ID NO: 38), and […](FAM)DK(Palmitoleic acid) (SEQ ID NO: 15). All peptides were cyclized from the side chain to lysine to the N-terminus as previously described in Millward, S. W. et al. (2007) ACS Chem. Biol. 2:625. Anesthetized C57BL6 mice had peptide administered at a dose of 10 mgs/Kg by oral gavage. After administration, mice were removed from isoflurane. At various time points, blood samples were taken by orbital bleeding as previously described. Peaks were normalized to a 20 minute time point from mice that had peptide administered by IV injection. Area under the curve was analyzed by Graphpad 5.0.
In addition to accessing intracellular targets in cell culture, deriving a simple modification that would facilitate oral bioavailability of peptidic ligands would be greatly beneficial for therapeutic development. Intestinal absorption of both fatty acids and biotin is nearly 100% efficient. Zempleni, J. and Mock, D. M. (1999) The American Journal of Clinical Nutrition 69:504. […] Applicants synthesized a protease resistant peptide with the sequence […]-mod (designated SUPR peptide) (SEQ ID NO: 50), where A is N-methyl alanine, the peptide is cyclized from lysine to the N-terminus, and K(mod) is lysine with a modified sidechain including either biotin or palmitoleic acid. Palmitoleic acid is a monounsaturated fatty acid chosen for its ability to bind human serum albumin, and its low melting point allowing for more favorable solubility of conjugated peptides as compared to […] fatty acid conjugates. This peptide was administered to mice at a dose of 10 mg/kg by oral gavage. At various time points, blood was taken from the mice by orbital bleeding. After processing, fluorescence was quantified and compared to the maximum signal obtained by IV injection of peptide at the same dose.

Chain of proteinase K (P06873 106-384): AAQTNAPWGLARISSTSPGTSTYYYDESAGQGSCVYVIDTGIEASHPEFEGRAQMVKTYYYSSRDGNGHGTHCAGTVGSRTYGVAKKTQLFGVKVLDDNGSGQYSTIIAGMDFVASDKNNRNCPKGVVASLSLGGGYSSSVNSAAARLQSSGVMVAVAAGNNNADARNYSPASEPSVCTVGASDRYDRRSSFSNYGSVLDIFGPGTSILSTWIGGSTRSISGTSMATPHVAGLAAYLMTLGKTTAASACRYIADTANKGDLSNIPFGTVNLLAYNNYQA
T1 sequence (P63096 whole entry): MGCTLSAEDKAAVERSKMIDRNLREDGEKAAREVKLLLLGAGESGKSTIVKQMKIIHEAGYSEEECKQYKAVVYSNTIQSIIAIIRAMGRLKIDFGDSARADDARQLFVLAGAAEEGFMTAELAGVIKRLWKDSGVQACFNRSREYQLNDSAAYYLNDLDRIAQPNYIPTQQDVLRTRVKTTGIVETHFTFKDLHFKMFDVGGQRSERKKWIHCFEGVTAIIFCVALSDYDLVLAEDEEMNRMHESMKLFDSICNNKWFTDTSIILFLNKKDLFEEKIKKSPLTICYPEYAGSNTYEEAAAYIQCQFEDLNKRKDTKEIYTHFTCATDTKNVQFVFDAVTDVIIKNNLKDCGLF

CSCC[C@@H]1NC(=O)CCCC(=O)NCCCC[C@@H](C(N)=O)NC(=O)[C@H](CO)NC(=O)[C@H](Cc2c[nH]c3ccccc23)NC(=O)[C@H](CCC(N)=O)NC(=O)[C@H](C)N(C)C(=O)[C@H](Cc2ccc(O)cc2)NC(=O)[C@H](CCC(=O)O)NC(=O)[C@H](Cc2ccc(O)cc2)NC(=O)[C@H](C)N(C)C(=O)[C@H](Cc2ccc(O)cc2)NC(=O)[C@H](Cc2ccccc2)NC1=O [cycSUPR]
fold more resistant to proteinase K (proteinase K): approximately 5200 fold | digest sites found from proteinase K (proteinase K; seven theoretical digest sites): 1 | specificity within the Gα family and state specificity of Gαi1 (Gαi1): retained specificity of its parent molecule | resistance to cytochrome P450 degradation (Human microsome digests; human liver microsomes, 37° C (Experiment No. 4)): more preotease resistant than the Her-2 binding peptides | stability to human liver microsomes (cytochrome P450s) (Human microsome digests; versus cycGIBP or linSUPR): nearly an order of magnitude increase in stability | oral uptake efficiency [1]: did not show any detectable oral uptake
